According to ChEMBL document CHEMBL1157539, “Thousands of chemical starting points for antimalarial lead identification” (Nature, 2010):

What follows are compounds tested on Plasmodium falciparum (assay: GSK_TCMDC: Inhibition of Plasmodium falciparum 3D7 in whole erythrocytes, using parasite LDH activity as an index of growth.). Conditions: Plasmodium falciparum, 3D7.
Format: functional, organism-based
`CCN(CC)CCN(Cc1ccc(-c2ccc(C(F)(F)F)cc2)cc1)C(=O)Cn1c(CCc2cc(F)c(F)c(F)c2)nc(=O)c2ccccc21` gave an XC50 of 827 nM.
In the case of `CC(C)N1CCC(N(Cc2ccc(-c3ccc(C(F)(F)F)cc3)cc2)C(=O)Cn2c(CCc3cccc(F)c3F)nc(=O)c3cccnc32)CC1`, the XC50 is reported as 642 nM.
`CO/C(=C\C=C\c1cc2cc(Cl)c(Cl)cc2[nH]1)C(=O)NC1CC(C)N(C)C(C)C1` (centres undefined) was tested, and the XC50 was 902 nM.
In the case of `COc1ccc(CN2CCCN(Cc3cccc(NC(=O)c4ccc(Cl)c(Cl)c4)c3)CC2)cc1`, the XC50 is reported as 973 nM.
In the case of `CCCCCc1cc(OC(C)=O)c2c(c1)OC(C)(C)C=C2C1=CCN(Cc2ccccc2)CC1`, the XC50 is reported as 926 nM.
With `c1ccn2c(Sc3ncnc4sccc34)ncc2c1` the XC50 was 663 nM.
Compound `OC(CNCc1cccc(Oc2ccc(Cl)cc2)c1)c1cccc(C(F)(F)F)c1` (centres undefined) has an XC50 of 971 nM.
`COc1cc(Nc2nccc(N3CCC(NC(=O)Nc4cccc(C(C)=O)c4)C3)n2)cc(OC)c1OC` (centres undefined) showed an XC50 of 973 nM.
`Cc1ccc(/C=C/C(=O)N2CCC(CCN3CCC(c4c[nH]c5ccccc45)CC3)CC2)cc1C` gave an XC50 of 926 nM.
`Cc1cc(C(=O)CN2C(=O)NC(C)(c3cccc4ccccc34)C2=O)c(C)n1Cc1ccco1` (centres undefined) gave an XC50 of 626 nM.
With `COc1ccc2ncc(F)c(CCN3CCC(NCc4cc5c(cn4)OCCS5)CC3)c2c1` the XC50 was 776 nM.
`COc1ccc2nc3ccccc3c(NCCN3CCN(C)CC3)c2c1` showed an XC50 of 1290 nM.
`Cc1cc(N[C@@H](Cc2ccccc2)C(=O)NCCOc2ccccc2)nc(NCCc2ccc(F)cc2)n1` showed an XC50 of 603 nM.
For `Cc1sc(CNCCCNc2cc(=O)c3ccccc3[nH]2)c(I)c1C`, the XC50 was 849 nM.
For `Cn1c(N)cc(-c2ccc(Br)cc2)c2c(=O)nc(N)nc1-2`, the XC50 was 1130 nM.
With `CC1CNC(c2ccc(NC(=O)c3ccc(C(=O)Nc4ccc(C5=NC(C)CN5)cc4)cc3)cc2)=N1` (centres undefined) the XC50 was 33.6 nM.
`CCCCCOc1ccc(C=NNc2nc(O)cc(-c3ccccc3)n2)cc1` showed an XC50 of 887 nM.
Work on `Cc1nc(-c2cccc(Nc3nccc(NCC(O)c4ccccc4)n3)c2)cs1` (centres undefined) yielded an XC50 of 793 nM.
Work on `CCc1c[nH]c2c(N3CCCS3(=O)=O)cc(C(=O)N[C@@H](Cc3ccccc3)[C@H](O)CNC(C)(C)CCCC(C)C)cc12` yielded an XC50 of 672 nM.
Compound `c1ccc2c(NCCCCCCCCCNc3ccnc4ccccc34)ccnc2c1` has an XC50 of 115 nM.
`Cc1nn(CCOC(=O)NC(NCC2COc3ccccc3O2)C(Cl)(Cl)Cl)cc1[N+](=O)[O-]` (centres undefined) gave an XC50 of 917 nM.
For `Oc1ccc(CCNc2nc(NCc3ccccc3-c3ccc(C(F)(F)F)cc3)nc(N3CCNCC3)n2)cc1`, the XC50 was 866 nM.
`CC1CN(Cc2ccc(C#N)cc2)CCN1c1ccc(NC(=O)c2cccs2)cc1` (centres undefined) was tested, and the XC50 was 809 nM.
With `c1cncc(-c2cc(N3CCCCC3)nc(-c3ccncc3)n2)c1` the XC50 was 767 nM.
Work on `c1cc(Cc2ccc(Nc3c4ccccc4nc4ccccc34)cc2)cc(Nc2c3ccccc3nc3ccccc23)c1` yielded an XC50 of 143 nM.
Work on `CCc1ccc(N2C(N)=NC(N)=NC2(C)C)cc1` yielded an XC50 of 8.82 nM.
`COc1ccc(CCCc2nc(N)nc(N)c2-c2ccc(Cl)cc2)cc1` was tested, and the XC50 was 44.2 nM.
With `Cn1cc(CN2CCC(CCOC(c3ccccc3)c3ccccc3)CC2)cn1` the XC50 was 259 nM.
`Nc1ccc(-c2ccc3ccnc(N)c3c2)cc1` gave an XC50 of 682 nM.
`c1cncc(CN2CCN(Cc3ccc(-c4ccc(-c5nc6ccccc6[nH]5)s4)cc3)CC2)c1` showed an XC50 of 938 nM.
`Cc1ccccc1C1CCN(c2ccc(C(=O)NC3CC3)cn2)CC1` was tested, and the XC50 was 846 nM.
In the case of `O=C(Nc1cccc(N2CCC(NCCCn3ccnc3)CC2)c1)c1cccc(C(F)(F)F)c1`, the XC50 is reported as 1110 nM.
With `C[C@@H](CC1CCCCC1)NCc1cccc(NS(=O)(=O)c2ccc(O)c(-c3ccno3)c2)c1` the XC50 was 376 nM.
With `CCN(CC)CCN(Cc1ccc(-c2ccc(C(F)(F)F)cc2)cc1)C(=O)c1ccc(-c2ccc(NC(=O)OC)cc2C)cc1` the XC50 was 929 nM.
Work on `c1ccc(CN2CCc3cc4nccc(N5CCNCC5)c4cc32)cc1` yielded an XC50 of 400 nM.
`CNC(=O)c1cnc(Nc2ccc(N3CCOCC3)cc2)nc1Nc1cccc(OC)c1` showed an XC50 of 759 nM.
Work on `COc1cc2nc(-c3ccccc3)nc(N3CCN(C(=O)c4ccco4)CC3)c2cc1OC` yielded an XC50 of 1410 nM.
Compound `COc1ccc(C(=O)Nc2cc(Cl)c3c(c2)C2CCCN2CC3)cc1C(F)(F)F` (centres undefined) has an XC50 of 753 nM.
Compound `COc1ccc(-c2csc3nc(C)nc(Cl)c23)cc1OC` has an XC50 of 357 nM.
